Data from ChEMBL document CHEMBL4725351, “Cyclic Derivative of Host-Defense Peptide IDR-1018 Improves Proteolytic Stability, Suppresses Inflammation, and Enhances In Vivo Activity” (J Med Chem, 2020).
Values after ≈ are worked out from the molar mass of the structure shown. Active and inactive are the calls of the source. The rule behind the calls is not given here. Where a SMILES comes first, the peptide text is derived from it.

What was measured:
[1] = Aggregation property of the compound in sodium phosphate solution at 10 mM by turbidimetric method; format: physicochemical; conditions: 10000 µM
Staphylococcus aureus [2] = experiment: Antibacterial activity against methicillin-resistant Staphylococcus aureus SAP0017 measured after overnight incubation by microtitre plate based spectrophotometric method; format: functional
[3] = Aggregation property of the compound in RPMI medium with 1% FBS at 1 mg/ml by turbidimetric method; format: physicochemical
Acinetobacter baumannii [4] = experiment: Antibiofilm activity against Acinetobacter baumannii 17918 incubated for 24 hrs under shaking condition by turbidometric method; format: functional
Trypsin [5] = target: T1, Trypsin (Homo sapiens, UniProt P07477+P07478+P35030); experiment: Stability of the compound in pH 8.2 ammonium bicarbonate buffer assessed as trypsin (unknown origin)-mediated drug degradation at 20 ug/ml measured up to 120 mins by MALDI-TOF analysis; format: ADME, protein assay; conditions: pH 8.2, 2 h, at 20 µg/mL
Pseudomonas aeruginosa [6] = experiment: Antibacterial activity against Pseudomonas aeruginosa PA14 measured after overnight incubation by microtitre plate based spectrophotometric method; format: functional
Trypsin [7] = target: T1, Trypsin; experiment: Stability of the compound in pH 8.2 ammonium bicarbonate buffer assessed as trypsin (unknown origin)-mediated drug degradation at 20 ug/ml measured up to 120 mins by RP-HPLC analysis; format: ADME, protein assay; conditions: pH 8.2, 2 h, at 20 µg/mL
Staphylococcus aureus [8] = experiment: Antibacterial activity against methicillin-resistant Staphylococcus aureus USA300 LAC measured after overnight incubation by microtitre plate based spectrophotometric method; format: functional
Acinetobacter baumannii [9] = experiment: Antibacterial activity against Acinetobacter baumannii 17918 measured after overnight incubation by microtitre plate based spectrophotometric method; format: functional
Klebsiella pneumoniae [10] = experiment: Antibacterial activity against Klebsiella pneumoniae ATTC 13883 measured after overnight incubation by microtitre plate based spectrophotometric method; format: functional
Pseudomonas aeruginosa [11] = experiment: Antibiofilm activity against Pseudomonas aeruginosa PAO1 incubated for 24 hrs under shaking condition by turbidometric method; format: functional
[12] = Cytotoxicity against human PBMC assessed as reduction in cell viability at 100 ug/ml measured after 24 hrs by LDH assay; format: tissue-based; conditions: dose 100 µg/ml
PBMC [13] = experiment: Immunomodulatory activity in human PBMC assessed as change in TNFalpha production at 25 ug/ml measured after overnight incubation by ELISA; format: functional, tissue-based; conditions: dose 25.0 µg/ml
Acinetobacter baumannii [14] = experiment: Antibacterial activity against Acinetobacter baumannii 5015 measured after overnight incubation by microtitre plate based spectrophotometric method; format: functional
Klebsiella pneumoniae [15] = experiment: Antibiofilm activity against Klebsiella pneumoniae ATTC 13883 incubated for 24 hrs under shaking condition by turbidometric method; format: functional
Escherichia coli [16] = experiment: Antibacterial activity against Escherichia coli ATTC 489 measured after overnight incubation by microtitre plate based spectrophotometric method; format: functional
[17] = Aggregation property of the compound in 5% dextrose at 1 mg/ml by turbidimetric method; format: physicochemical
PBMC [18] = experiment: Immunomodulatory activity in human PBMC assessed as increase in MCP1 production at 25 ug/ml measured after overnight incubation by ELISA; format: functional, tissue-based; conditions: dose 25.0 µg/ml
PBMC [19] = experiment: Immunomodulatory activity in human PBMC assessed as increase in IL-1RA production at 25 ug/ml measured after overnight incubation by ELISA; format: functional, tissue-based; conditions: dose 25.0 µg/ml
Acinetobacter baumannii [20] = experiment: Antibiofilm activity against Acinetobacter baumannii 5015 incubated for 24 hrs under shaking condition by turbidometric method; format: functional
[21] = Aggregation property of the compound in water at 1 mg/ml by turbidimetric method; format: physicochemical; conditions: buffer
Pseudomonas aeruginosa [22] = experiment: Antibacterial activity against Pseudomonas aeruginosa PAO1 measured after overnight incubation by microtitre plate based spectrophotometric method; format: functional
[23] = Aggregation property of the compound in sodium nitrate solution at 10 mM by turbidimetric method; format: physicochemical; conditions: 10000 µM
[24] = Aggregation property of the compound in sodium citrate solution at 10 mM by turbidimetric method; format: physicochemical; conditions: 10000 µM
Staphylococcus aureus [25] = experiment: Antibiofilm activity against methicillin-resistant Staphylococcus aureus USA300 LAC incubated for 24 hrs under shaking condition by turbidometric method; format: functional
[26] = Aggregation of the compound in human PBMC assessed as amorphous morphology at 50 ug/ml measured after 4 hrs by microscopic analysis; format: ADME, tissue-based; conditions: dose 50 µg/ml
Pseudomonas aeruginosa [27] = experiment: Antibiofilm activity against Pseudomonas aeruginosa PA14 incubated for 24 hrs under shaking condition by turbidometric method; format: functional
Escherichia coli [28] = experiment: Antibiofilm activity against Escherichia coli ATTC 489 incubated for 24 hrs under shaking condition by turbidometric method; format: functional
[29] = Aggregation property of the compound in saline at 1 mg/ml by turbidimetric method; format: physicochemical; conditions: buffer
Staphylococcus aureus [30] = experiment: Antibiofilm activity against methicillin-resistant Staphylococcus aureus SAP0017 incubated for 24 hrs under shaking condition by turbidometric method; format: functional
Pseudomonas aeruginosa [31] = experiment: Antibiofilm activity against 24 hrs preformed Pseudomonas aeruginosa PA14 biofilm assessed as reduction in biofilm viability at 100 ug/ml by TTC assay; format: functional, organism-based; conditions: dose 100.0 µg/ml
Escherichia coli [32] = experiment: Antibiofilm activity against 24 hrs preformed Escherichia coli ATTC 489 biofilm assessed as reduction in biofilm viability at 100 ug/ml by TTC assay; format: functional, organism-based; conditions: dose 100.0 µg/ml
Klebsiella pneumoniae [33] = experiment: Antibiofilm activity against 24 hrs preformed Klebsiella pneumoniae ATTC 13883 biofilm assessed as reduction in biofilm viability at 100 ug/ml by TTC assay; format: functional, organism-based; conditions: dose 100.0 µg/ml
Pseudomonas aeruginosa [34] = experiment: Antibiofilm activity against 24 hrs preformed Pseudomonas aeruginosa PAO1 biofilm assessed as reduction in biofilm viability at 100 ug/ml by TTC assay; format: functional, organism-based; conditions: dose 100.0 µg/ml
Acinetobacter baumannii [35] = experiment: Antibiofilm activity against 24 hrs preformed Acinetobacter baumannii 17918 biofilm assessed as reduction in biofilm viability at 100 ug/ml by TTC assay; format: functional, organism-based; conditions: dose 100.0 µg/ml
Acinetobacter baumannii [36] = experiment: Antibiofilm activity against 24 hrs preformed Acinetobacter baumannii 5015 biofilm assessed as reduction in biofilm viability at 100 ug/ml by TTC assay; format: functional, organism-based; conditions: dose 100.0 µg/ml

Compound | MIC (Staphylococcus aureus [2]) | MBEC (Acinetobacter baumannii [4]) | MIC (Pseudomonas aeruginosa [6]) | MIC (Staphylococcus aureus [8]) | MIC (Acinetobacter baumannii [9]) | MIC (Klebsiella pneumoniae [10]) | MBEC (Pseudomonas aeruginosa [11]) | MIC (Acinetobacter baumannii [14]) | MBEC (Klebsiella pneumoniae [15]) | MIC (Escherichia coli [16]) | MBEC (Acinetobacter baumannii [20]) | MIC (Pseudomonas aeruginosa [22]) | MBEC (Staphylococcus aureus [25]) | MBEC (Pseudomonas aeruginosa [27]) | MBEC (Escherichia coli [28]) | MBEC (Staphylococcus aureus [30]) | also measured
CC[C@H](C)[C@@H]1NC(=O)[C@H](CCCNC(=N)N)NC(=O)[C@H](C(C)C)NC(=O)[C@H](C)NC(=O)[C@H](C(C)C)NC(=O)[C@H]([C@@H](C)CC)NC(=O)[C@H](CC(C)C)NC(=O)[C@H](CCCNC(=N)N)NC(=O)[C@H](C(C)C)NC(=O)[C@H](CCCNC(=N)N)NC(=O)[C@H](CCCNC(=N)N)NC(=O)[C@H](Cc2c[nH]c3ccccc23)NC1=O (cyclo(AVRIWRRVRLIV)) | 65.8 µM (≈ 99.9 µg/mL) | >65.8 µM | > 65.8 µM | 65.8 µM (≈ 99.9 µg/mL) | 65.8 µM (≈ 99.9 µg/mL) | 65.8 µM (≈ 99.9 µg/mL) | >65.8 µM | 65.8 µM (≈ 99.9 µg/mL) | >65.8 µM | 65.8 µM (≈ 99.9 µg/mL) | >65.8 µM | > 65.8 µM | 65.8 µM | >65.8 µM | >65.8 µM | 65.8 µM | Activity [1]: Not Active; Activity [3]: Active; Stabilty (Trypsin [5]): Stable; Stabilty (Trypsin [7]): Stable; Activity [12]: Toxic; Activity (PBMC [13]): Active; Activity [17]: Not Active; Activity (PBMC [18]): Active; Activity (PBMC [19]): Active; Activity [21]: Not Active; Activity [23]: Not Active; Activity [24]: Not Active; Activity [26]: Not Active; Activity [29]: Not Active
CCCCCCCCCCCCCCCC[N+](C)(C)Cc1ccccc1.[Cl-] [CETALKONIUM CHLORIDE] | 3.7 µM | 40.3 µM | > 126 µM | 3.7 µM | 7.8 µM | 7.8 µM | >126 µM | 7.8 µM | 63.1 µM | 7.8 µM | 40.3 µM | > 126 µM | 20.1 µM | >126 µM | 40.3 µM | 15.1 µM | –
CN[C@H](CC(C)C)C(=O)N[C@H]1C(=O)N[C@@H](CC(N)=O)C(=O)N[C@H]2C(=O)N[C@H]3C(=O)N[C@H](C(=O)N[C@H](C(=O)O)c4cc(O)cc(O)c4-c4cc3ccc4O)[C@H](O)c3ccc(c(Cl)c3)Oc3cc2cc(c3O[C@@H]2O[C@H](CO)[C@@H](O)[C@H](O)[C@H]2O[C@H]2C[C@](C)(N)[C@H](O)[C@H](C)O2)Oc2ccc(cc2Cl)[C@H]1O [VANCOMYCIN] | 0.4 µM (≈ 0.58 µg/mL) | >68 µM | > 68 µM | 0.4 µM (≈ 0.58 µg/mL) | > 68 µM | > 68 µM | >68 µM | > 68 µM | >68 µM | > 68 µM | >68 µM | > 68 µM | >68 µM | >68 µM | >68 µM | >68 µM | –
COLISTIN | > 86 µM | > 86 µM | 2.5 µM | > 86 µM | 1.2 µM | 1.2 µM | > 86 µM | 1.2 µM | > 86 µM | 1.2 µM | > 86 µM | 2.5 µM | > 86 µM | > 86 µM | > 86 µM | > 86 µM | Activity (Pseudomonas aeruginosa [31]): inactive; Activity (Escherichia coli [32]): inactive; Activity (Klebsiella pneumoniae [33]): inactive; Activity (Pseudomonas aeruginosa [34]): inactive; Activity (Acinetobacter baumannii [35]): inactive; Activity (Acinetobacter baumannii [36]): inactive
